Patent US20260000642A1 (Tay Therapeutics Limited, priority 2022, published 2026)
Where “and” joins values, the source holds several entries; their conditions need not be identical. Identical values can stand only once. Entries after “also recorded” stand apart in the source; their conditions may differ. Like-named read-outs stand apart in the source and are kept apart here.

Legend:
[1] = tested on: Col1a1, TGF-b1, MCP-1, IL-1b, IL-6, IL-17, TNF-a, and Timp1; assay: UUO model: kidney tissue biomarker mRNA by RT-PCR; format: in vivo, rat; conditions: UUO rats; 30 mg/kg
Source text: Serum for blood biochemistry analysis was collected into centrifuge tubes without coagulant four hours after final dosing. Blood plasma samples from group 3 was collected into tubes with K2EDTA four hours after final dosing. At the conclusion of the study (end of the 14-day period), animals were euthanized. Kidney tissue was collected four hours after final dosing. Ligated side kidney was divided into three copies 1/3 fix into 10% formalin for H&E analysis, 1/3 into RNA for PCR analysis of tissue biomarkers Col1a1, TGF-b1, MCP-1, IL-1b, IL-6, IL-17, TNF-a, and Timp1, and 1/3 for hydroxyproline assay analyzed by ELISA. RNA was extracted from tissue using the RNeasy mini kit (Qiagen). RNA concentration was measured using a NanoDrop One Spectrophotometer (ThermoFisher) and converted to cDNA using a High-Capacity RNA-to-cDNA kit (Invitrogen). RT-PCR was performed to measure levels of mRNA of different targets using TaqMan® Gene Expression Master Mix and TaqMan® probe/primer sets on a QuantStudio 6 Real-Time PCR System (ThermoFisher). Fold change in target gene expression was determined using the ΔΔCt method.

[2] = Pharmacokinetics of Example 101 in Lewis rats (oral, CIA study); format: in vivo, Lewis rat; conditions: day 20, 10 mg/kg, individual test subjects
[3] = Plasma stability assay, human plasma; format: in vitro ADME; conditions: 37° C., Method 1 (5 μM)
[4] = Beagle dog PK study 1 (IV and PO, propylene glycol-based formulation); format: in vivo; conditions: for concentration at 0.25 h / concentration at 0.5 h / concentration at 1 h / concentration at 2 h / concentration at 4 h / concentration at 8 h / concentration at 24 h: beagle, dog, plasma, po, 5 mg/kg
Method: (§1) The purpose of this study was to examine the pharmacokinetics of Example 101 in beagle dogs. […] An oral PK study was also undertaken in Lewis rats—see Experimental Method C.
(§2) Body weight was recoded prior to dosing, and detailed clinical observations were made prior to dosing and throughout the study, as needed.
Subsequently, 17.320 mL Vitamin E TPGS was added, and the solution was vortexed and sonicated. Then, 51.960 mL water was added, and solution was then heated. […] Subsequently, 39.894 mL Vitamin E TPGS was added, and the solution was vortexed and sonicated. Then, 119.682 mL water was added, and the solution was heated.
(§3) Blood samples (˜0.3 mL) were collected according to a schedule (detailed below) by venipuncture of peripheral veins except for the dosing vein, and EDTA-K2 was used as anticoagulant. Within 30 minutes of collection, the samples were centrifuged at approximately 2000× g for 10 minutes at 4° C. to obtain blood plasma. The plasma samples were immediately divided into two aliquots (˜75 μL each), transferred to a cryogenic vial, and stored in a freezer at −75±15° C. prior to analysis.
Blood samples were collected at 0.25, 0.5, 1, 2, 4, 8, and 24 h following the initial dosing (0 h).
(§4) The experiments were conducted on a Shimadzu DGU-20A5R and AB API 5500+LC/MS/MS instrument with an Agilent Poroshell EC-C18 4 μm (50×2.1 mm) column. A gradient of 95% water (0.1% formic acid)/95% acetonitrile (0.1% formic acid) was used as the mobile phase. The sample injection volume was 1 μL, and the flow rate was 0.6 mL/min. The gathered data were used for pharmacokinetic calculations using T½, C0, AUClast, AUCinf, MRTinf, CI, Vss, and Number of Points for Regression as parameters.

[5] = Beagle dog PK study 2 (IV, HPβCD based formulation); format: in vivo
Method: as §1, §2
78.646 mL of HPβCD (20% solution w/v) was then added with vortex and sonication.
as §3, with “(shown” for “(detailed”
Blood samples were collected at 0.083, 0.25, 0.5, 1, 2, 4, 8, and 24 h following the initial dosing (0 h).
as §4

[6] = target: T1, BRD4 BD2 (Homo sapiens, UniProt O60885); assay: NanoBRET bromodomain assay, NanoLuc-BRD4-BD2 fusion vector in HEK293 cells; format: cell-based
T1 construct: HEK293 cells were transfected using NanoLuc-BRD4-BD1 or NanoLuc-BRD4-BD2 fusion vectors; host or cells: HEK293
Source text: Bromodomain Assay Procedure

[7] = PK study 1, PO 5 mg/kg, Test Animal 1, read-out: Plasma concentration
[8] = PK study 1, PO 5 mg/kg, Test Animal 2, read-out: Plasma concentration
[9] = PK study 1, PO 5 mg/kg, Test Animal 3, read-out: Plasma concentration
[10] = PK study 1, PO 5 mg/kg, read-out: Average plasma concentration, Mean

## CNC(=O)c1[nH]c(C(=O)NC2CCC2)cc1O[C@@H](C)c1ccccc1 [Example 101, N^5-cyclobutyl-N^2-methyl-3-(1-phenylethoxy)-1H-pyrrole-2,5-dicarboxamide]
[1]
  expression of IL-17 relative to UUO + vehicle: limited effect
  expression of TNF-a relative to UUO + vehicle: limited effect
  tissue RNA level of Col1a1 relative to UUO + vehicle: reduced
  tissue RNA level of IL-1b relative to UUO + vehicle: reduced
  tissue RNA level of IL-6 relative to UUO + vehicle: reduced
  tissue RNA level of MCP-1 relative to UUO + vehicle: reduced
  tissue RNA level of TGB-b1 relative to UUO + vehicle: reduced
  tissue RNA level of Timp1 relative to UUO + vehicle: reduced
[2]
  Plasma concentration at 14 h: 68.5 ng/mL and 159 ng/mL and 185 ng/mL
[3]
  Plasma Stability (% remaining at 120 minutes) Human: 93%
[4]; PK study 1, IV 1 mg/kg
  AUClast/D, Mean: 1883 (ng · h/mL)/(mg/kg)
  AUC—% Extrap_obs, Mean: 0.73%
  C0, Mean: 1512 ng/mL
  Cl_obs, Mean: 8.84 mL/min/kg
  Vss_obs, Mean: 0.733 L/kg
[4]; PK study 1, IV 1 mg/kg, Test Animal 1
  Vss_obs: 0.734 L/kg
[4]; PK study 1, IV 1 mg/kg, Test Animal 2
  Vss_obs: 0.747 L/kg
[4]; PK study 1, IV 1 mg/kg, Test Animal 3
  Vss_obs: 0.719 L/kg
[4]; PK study 1, PO 5 mg/kg
  AUClast/D, Mean: 830 (ng · h/mL)/(mg/kg)
  AUC—% Extrap_obs, Mean: 0.531%
  F, Mean: 44.0%
[4]; PK study 1, PO 5 mg/kg, Test Animal 1
  F: 48.0%
[4]; PK study 1, PO 5 mg/kg, Test Animal 3
  AUClast/D: 1000 (ng · h/mL)/(mg/kg)
[4]; beagle dogs, PK study 1, group 1 (IV), 20% propylene glycol/20% Vitamin E TPGS/60% water, individual animals
  clinical observations after intravenous administration: Vomitus with solid food and soft feces; also recorded: twitching of hindlimbs; also recorded: Slight twitching and lacrimation
[4]; beagle dogs, PK study 1, group 2 (PO), 20% propylene glycol/20% Vitamin E TPGS/60% water
  clinical observations after oral administration: Loose feces
[4]; beagle dogs, PK study 1, oral administration
  time post-administration at which plasma concentrations began to steadily decrease: approximately 1 h
[4]; beagle dogs, oral and intravenous
  tolerability in dog PK studies: well tolerated
[4]; [7]
  concentration at 0.25 h: 173 ng/mL
  concentration at 0.5 h: 1480 ng/mL
  concentration at 1 h: 2220 ng/mL
  concentration at 2 h: 1130 ng/mL
  concentration at 4 h: 142 ng/mL
  concentration at 8 h: 9.51 ng/mL
  concentration at 24 h: 4.58 ng/mL
[4]; [8]
  concentration at 0.25 h: 775 ng/mL
  concentration at 0.5 h: 1550 ng/mL
  concentration at 1 h: 1180 ng/mL
  concentration at 2 h: 621 ng/mL
  concentration at 4 h: 103 ng/mL
  concentration at 8 h: 14.8 ng/mL
[4]; [9]
  concentration at 0.25 h: 309 ng/mL
  concentration at 0.5 h: 1320 ng/mL
  concentration at 1 h: 2240 ng/mL
  concentration at 2 h: 1310 ng/mL
  concentration at 4 h: 254 ng/mL
  concentration at 8 h: 9.52 ng/mL
[4]; [10]
  concentration at 0.25 h: 419 ng/mL
  concentration at 0.5 h: 1450 ng/mL
  concentration at 1 h: 1880 ng/mL
  concentration at 2 h: 1020 ng/mL
  concentration at 4 h: 166 ng/mL
  concentration at 8 h: 11.3 ng/mL
  concentration at 24 h: 1.53 ng/mL
[5]; PK study 2, IV 1 mg/kg
  AUClast/D, Mean: 977 (ng · h/mL)/(mg/kg)
  AUC—% Extrap_obs, Mean: 0.689%
  C0, Mean: 1875 ng/mL
  Cl_obs, Mean: 18.3 mL/min/kg
  Vssz_obs, Mean: 0.864 L/kg
[5]; PK study 2, IV 1 mg/kg, 24 h
  Average plasma concentration, Mean: BLOQ
[5]; PK study 2, IV 1 mg/kg, Test Animal 1
  Vssz_obs: 0.838 L/kg
[5]; PK study 2, IV 1 mg/kg, Test Animal 2
  Vssz_obs: 0.886 L/kg
[5]; PK study 2, IV 1 mg/kg, Test Animal 3
  Vssz_obs: 0.868 L/kg
[5]; beagle dogs, PK study 2, IV, 0.5 mg/mL in HPβCD (20% solution w/v)/DMSO (99/1)
  clinical observations after intravenous administration: soft feces
[6]
  selectivity for BDII relative to GSK620: greater than about two orders of magnitude
